Results reported in patent US9884048B2, “ERK inhibitors” (Merck Sharp & Dohme Corp., priority 2014, dated 2018).

Target: phosphorylated active hERK2 enzyme (Homo sapiens (Human), UniProt P28482)
Details: not given

Sequence of phosphorylated active hERK2 enzyme (P28482 whole entry): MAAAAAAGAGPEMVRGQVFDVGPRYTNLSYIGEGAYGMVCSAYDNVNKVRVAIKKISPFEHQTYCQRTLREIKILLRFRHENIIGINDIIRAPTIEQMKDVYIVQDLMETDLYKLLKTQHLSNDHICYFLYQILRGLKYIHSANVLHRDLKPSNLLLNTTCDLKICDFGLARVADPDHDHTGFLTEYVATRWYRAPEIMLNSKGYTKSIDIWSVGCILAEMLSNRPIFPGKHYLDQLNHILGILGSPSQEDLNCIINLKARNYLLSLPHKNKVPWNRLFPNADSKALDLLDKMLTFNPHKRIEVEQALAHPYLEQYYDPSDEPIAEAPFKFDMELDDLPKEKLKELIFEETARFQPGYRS

Compound `Cc1cc(-n2ncc3cc(NC(=O)N[C@@H](c4ccccc4)C(C)(C)O)nc(CO)c32)ccn1` [Example 254, 1-[7-(hydroxymethyl)-1-(2-methylpyridin-4-yl)-1H-pyrazolo[3,4-c]pyridin-5-yl]-3-[(1S)-2-hydroxy-2-methyl-1-phenylpropyl]urea] has an IC50 of 0.0043 µM.

Same assay, conditions: read-out: ERK2 IC50; IMAP-FP assay; 0.5 nM hERK2, 30 μM ATP; 10 point titration, 3 μM starting concentration

`COCc1nc(NC(=O)N[C@H](C)c2ccccc2)cc2cnn(-c3ccc(F)cc3)c12` [Example 241, 1-[1-(4-fluorophenyl)-7-(methoxymethyl)-1H-pyrazolo[3,4-c]pyridin-5-yl]-3-[(1R)-1-phenylethyl]urea] and `C[C@@H](NC(=O)Nc1cc2cnn(-c3ccc(F)cc3)c2c(COCCO)n1)c1ccccc1` [Example 246, 1-{1-(4-fluorophenyl)-7-[(2-hydroxyethoxy)methyl]-1H-pyrazolo[3,4-c]pyridin-5-yl}-3-[(1R)-1-phenylethyl]urea] are within 1.5-fold of each other in IC50: 0.0559 µM for the first, 0.0522 µM for the second.

First: C[C@@H](NC(=O)Nc1cc2cnn(-c3ccc(F)cc3)c2c(CN2CCOCC2)n1)c1ccccc1 [Example 242, 1-[1-(4-fluorophenyl)-7-(morpholin-4-ylmethyl)-1H-pyrazolo[3,4-c]pyridin-5-yl]-3-[(1R)-1-phenylethyl]urea]
Second: C[C@@H](NC(=O)Nc1cc2cnn(-c3ccc(F)cc3)c2c(COCCN2CCOCC2)n1)c1ccccc1 [Example 244, 1-{1-(4-fluorophenyl)-7-[(2-morpholin-4-ylethoxy)methyl]-1H-pyrazolo[3,4-c]pyridin-5-y1}-3-[(1R)-1-phenylethyl]urea]
The IC50 of the first is 12-fold higher: 2.24 µM for the first, 0.188 µM for the second.

Compared with `C[C@@H](NC(=O)Nc1cc2cnn(-c3ccc(F)cc3)c2c(CN(C)C)n1)c1ccccc1` [Example 243, 1-{7-[(dimethylamino)methyl]-1-(4-fluorophenyl)-1H-pyrazolo[3,4-c]pyridin-5-yl}-3-[(1R)-1-phenylethyl]urea], `COCc1nc(NC(=O)N[C@H](C)c2ccccc2)cc2cnn(-c3ccnc(C)c3)c12` [Example 247, 1-[7-(methoxymethyl)-1-(2-methylpyridin-4-yl)-1H-pyrazolo[3,4-c]pyridin-5-yl]-3-[(1R)-1-phenylethyl]urea] is 140-fold lower in IC50: 1.58 µM for the first, 0.0111 µM for the second.

First: Cc1cc(-n2ncc3cc(NC(=O)N[C@H](C)c4ccccc4)nc(CN4CCOCC4)c32)ccn1 [Example 245, 1-[1-(2-methylpyridin-4-yl)-7-(morpholin-4-ylmethyl)-1H-pyrazolo[3,4-c]pyridin-5-yl]-3-[(1R)-1-phenylethyl]urea]
Second: Cc1cc(-n2ncc3cc(NC(=O)N[C@H](C)c4ccccc4)nc(COCCN4CCOCC4)c32)ccn1 [Example 249, 1-{1-(2-methylpyridin-4-yl)-7-[(2-morpholin-4-ylethoxy)methyl]-1H-pyrazolo[3,4-c]pyridin-5-yl}-3-[(1R)-1-phenylethyl]urea]
The IC50 of the first is 6.6-fold higher: 0.832 µM for the first, 0.127 µM for the second.

Compared with `COCCOCc1nc(NC(=O)N[C@H](C)c2ccccc2)cc2cnn(-c3ccnc(C)c3)c12` [Example 248, 1-{7-[(2-methoxyethoxy)methyl]-1-(2-methylpyridin-4-yl)-1H-pyrazolo[3,4-c]pyridin-5-yl}-3-[(1R)-1-phenylethyl]urea], `Cc1cc(-n2ncc3cc(NC(=O)N[C@H](C)c4ccccc4)nc(COCCO)c32)ccn1` [Example 253, 1-{7-[(2-hydroxyethoxy)methyl]-1-(2-methylpyridin-4-yl)-1H-pyrazolo[3,4-c]pyridin-5-yl}-3-[(1R)-1-phenylethyl]urea] is 2.1-fold higher in IC50: 0.0114 µM for the first, 0.0234 µM for the second. The first is the more potent here.

Compared with `Cc1cc(-n2ncc3cc(NC(=O)N[C@H](C)c4ccccc4)nc(COC4COC4)c32)ccn1` [Example 250, 1-{1-(2-methylpyridin-4-yl)-7-[(oxetan-3-yloxy)methyl]-1H-pyrazolo[3,4-c]pyridin-5-yl}-3-[(1R)-1-phenylethyl]urea], `Cc1cc(-n2ncc3cc(NC(=O)N[C@H](C)c4ccccc4)nc(C)c32)ccn1` [Example 251, 1-[7-methyl-1-(2-methylpyridin-4-yl)-1H-pyrazolo[3,4-c]pyridin-5-yl]-3-[(1R)-1-phenylethyl]urea] is 8.9-fold lower in IC50: 0.025 µM for the first, 0.00281 µM for the second.

`Cc1cc(-n2ncc3cc(NC(=O)N[C@H](C)c4ccccc4)nc(COCCOCc4ccccc4)c32)ccn1` [Example 252, 1-[7-{[2-(benzyloxy)ethoxy]methyl}-1-(2-methylpyridin-4-yl)-1H-pyrazolo[3,4-c]pyridin-5-yl]-3-[(1R)-1-phenylethyl]urea] and `CCn1ncc2cc(NC(=O)N[C@H](C)c3ccccc3)nc(OCCO)c21` [Example 258, 1-[1-ethyl-7-(2-hydroxyethoxy)-1H-pyrazolo[3,4-c]pyridin-5-yl]-3-[(1R)-1-phenylethyl]urea] are within 1.5-fold of each other in IC50: 0.0253 µM for the first, 0.0353 µM for the second.

First: C[C@@H](NC(=O)Nc1cc2cnn(C(C)(C)C)c2c(CO)n1)c1ccccc1 [Example 255, 1-[1-tert-butyl-7-(hydroxymethyl)-1H-pyrazolo[3,4-c]pyridin-5-yl]-3-[(1R)-1-phenylethyl]urea]
Second: CCn1ncc2cc(NC(=O)N[C@H](C)c3ccccc3)nc(OC)c21 [Example 256, 1-(1-ethyl-7-methoxy-1H-pyrazolo[3,4-c]pyridin-5-yl)-3-[(1R)-1-phenylethyl]urea]
The IC50 of the first is 13-fold higher: 1.26 µM for the first, 0.1 µM for the second.

`CCn1ncc2cc(NC(=O)N[C@@H](c3ccccc3)C(C)(C)O)nc(OC)c21` [Example 257, 1-(1-ethyl-7-methoxy-1H-pyrazolo[3,4-c]pyridin-5-yl)-3-[(1S)-2-hydroxy-2-methyl-1-phenylpropyl]urea] and `COC[C@@H](NC(=O)Nc1cc2cnn(Cc3ccncc3)c2cn1)c1ccccc1` [Example 260, 1-[(1S)-2-methoxy-1-phenylethyl]-3-[1-(pyridin-4-ylmethyl)-1H-pyrazolo[3,4-c]pyridin-5-yl]urea] are within 1.5-fold of each other in IC50: 0.0449 µM for the first, 0.0309 µM for the second.

Going from `COC[C@@H](NC(=O)Nc1cc2cnn(C3CCOCC3)c2cn1)c1ccccc1` [Example 259, (S)-1-(2-methoxy-1-phenylethyl)-3-(1-(tetrahydro-2H-pyran-4-yl)-1H-pyrazolo[3,4-c]pyridin-5-yl)urea] to `O=C(Nc1cc2cnn(Cc3ccncc3)c2cn1)N[C@H](CO)c1ccccc1` [Example 261, 1-[(1S)-2-hydroxy-1-phenylethyl]-3-[1-(pyridin-4-ylmethyl)-1H-pyrazolo[3,4-c]pyridin-5-yl]urea], the IC50 rises from 0.196 µM to 2.43 µM (12-fold). The first is the more potent here.

First: CO[C@@H]1CN(Cc2cccnc2)C[C@H]1NC(=O)Nc1cc2cnn(-c3ccnc(C)c3)c2cn1 [Example 262, 1-((3R,4R)-4-methoxy-1-(pyridin-3-ylmethyl)pyrrolidin-3-yl)-3-(1-(2-methylpyridin-4-yl)-1H-pyrazolo[3,4-c]pyridin-5-yl)urea]
Second: Cc1cc(-n2ncc3cc(NC(=O)NC4CCN(Cc5cccnc5)C4)ncc32)ccn1 (centres unmarked) [Example 270, 1-[1-(2-methylpyridin-4-yl)-1H-pyrazolo[3,4-c]pyridin-5-yl]-3-[1-(pyridin-3-ylmethyl)-pyrrolidin-3-yl]urea]
The IC50 of the first is 5.6-fold higher: 0.253 µM for the first, 0.0453 µM for the second. The second is the more potent here.

`Cc1cc(-n2ncc3cc(NC(=O)NCC4CNC4)ncc32)ccn1` [Example 263, 1-(azetidin-3-ylmethyl)-3-(1-(2-methylpyridin-4-yl)-1H-pyrazolo[3,4-c]pyridin-5-yl)urea] and `Cc1cc(-n2ncc3cc(NC(=O)NCC4CN(C)C4)ncc32)ccn1` [Example 264, 1-((1-methylazetidin-3-yl)methyl)-3-(1-(2-methylpyridin-4-yl)-1H-pyrazolo[3,4-c]pyridin-5-yl)urea] are within 1.5-fold of each other in IC50: 0.102 µM for the first, 0.07 µM for the second.

Going from `Cc1cc(-n2ncc3cc(NC(=O)NC4CCCN(Cc5cccnc5)C4)ncc32)ccn1` (centres unmarked) [Example 265] to `Cc1cc(-n2ncc3cc(NC(=O)NC4CCCN(Cc5cccnc5Cl)C4)ncc32)ccn1` (centres unmarked) [Example 268, 1-{1-[(2-chloropyridin-3-yl)methyl]piperidin-3-yl}-3-[1-(2-methylpyridin-4-yl)-1H-pyrazolo[3,4-c]pyridin-5-yl]urea], the IC50 falls from 0.115 µM to 0.0186 µM (6.2-fold). The second is the more potent here.

First: Cc1cc(-n2ncc3cc(NC(=O)NC4CCCN(Cc5c(F)cccc5F)C4)ncc32)ccn1 (centres unmarked) [Example 266, 1-[1-(2,6-difluorobenzyl)piperidin-3-yl]-3-[1-(2-methylpyridin-4-yl)-1H-pyrazolo[3,4-c]pyridin-5-yl]urea]
Second: Cc1cc(-n2ncc3cc(NC(=O)NC4CCN(Cc5c(F)cccc5F)C4)ncc32)ccn1 (centres unmarked) [Example 271, 1-[1-(2,6-difluorobenzyl)pyrrolidin-3-yl]-3-[1-(2-methylpyridin-4-yl)-1H-pyrazolo[3,4-c]pyridin-5-yl]urea]
The IC50 of the first is 2.8-fold higher: 0.00278 µM for the first, 0.000997 µM for the second. The second is the more potent here.

Compared with `Cc1cc(-n2ncc3cc(NC(=O)NC4CCCN(Cc5nccs5)C4)ncc32)ccn1` (centres unmarked) [Example 267, 1-[1-(2-methylpyridin-4-yl)-1H-pyrazolo[3,4-c]pyridin-5-yl]-3-[1-(1,3-thiazol-2-ylmethyl)piperidin-3-yl]urea], `CCO[C@H]1CNC[C@@H]1NC(=O)Nc1cc2cnn(-c3ccnc(C)c3)c2cn1` [Example 272, 1-[(3S,4S)-4-ethoxypyrrolidin-3-yl]-3-[1-(2-methylpyridin-4-yl)-1H-pyrazolo[3,4-c]pyridin-5-yl]urea] is 1.8-fold higher in IC50: 0.0222 µM for the first, 0.0399 µM for the second.

Going from `CO[C@H]1CN(Cc2c(F)cccc2F)C[C@@H]1NC(=O)Nc1cc2cnn(-c3ccnc(C)c3)c2cn1` [Example 269, 1-[(3S,4S)-1-(2,6-difluorobenzyl)-4-methoxypyrrolidin-3-yl]-3-[1-(2-methylpyridin-4-yl)-1H-pyrazolo[3,4-c]pyridin-5-yl]urea] to `CCN1C[C@H](NC(=O)Nc2cc3cnn(-c4ccnc(C)c4)c3cn2)[C@@H](Oc2cncc(F)c2)C1` [Example 277, 1-{(3S,4S)-1-ethyl-4-[(5-fluoropyridin-3-yl)oxy]pyrrolidin-3-yl}-3-[1-(2-methylpyridin-4-yl)-1H-pyrazolo[3,4-c]pyridin-5-yl]urea], the IC50 rises from 0.00539 µM to 0.594 µM (110-fold). The first is the more potent here.

`Cc1cc(-n2ncc3cc(NC(=O)N[C@H]4CNC[C@@H]4Oc4cncc(F)c4)ncc32)ccn1` [Example 275, 1-{(3S,4S)-4-[(5-fluoropyridin-3-yl)oxy]pyrrolidin-3-yl}-3-[1-(2-methylpyridin-4-yl)-1H-pyrazolo[3,4-c]pyridin-5-yl]urea] and `Cc1cc(-n2ncc3cc(NC(=O)N[C@H]4CN(C)C[C@@H]4Oc4cncc(F)c4)ncc32)ccn1` [Example 276, 1-{(3S,4S)-4-[(5-fluoropyridin-3-yl)oxy]-1-methylpyrrolidin-3-yl}-3-[1-(2-methylpyridin-4-yl)-1H-pyrazolo[3,4-c]pyridin-5-yl]urea] are within 1.5-fold of each other in IC50: 0.327 µM for the first, 0.242 µM for the second.
